In PubChem BioAssay AID248 (DTP/NCI, 2004):
Several values for one entry are separate records, joined by “and”; a condition that tells them apart may be missing. Equal entries are not always repeated. Toxic doses and inconclusive results are not listed.

Tested on: L1210 leukemia ip in BDF1 mice, survival T/C
Test: NCI In Vivo Anticancer Drug Screen. Data for tumor model L1210 Leukemia (intraperitoneal) in B6D2F1 (BDF1) mice
Conditions: endpoint: mean survival time, higher = longer survival
How it was run: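 Ratio derived from survival: compound-dosed mice over vehicle-dosed mice, all bearing a transplantable tumor.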

[1] = dose: 25.0 mg/kg/injection, schedule: Q01DX009 (ip), vehicle: saline with Tween-80
[2] = dose: 50.0 mg/kg/injection, schedule: Q01DX001 (ip), vehicle: saline
[3] = dose: 50.0 mg/kg/injection, schedule: Q01DX009 (ip), vehicle: saline with Tween-80
[4] = dose: 100.0 mg/kg/injection, schedule: Q01DX009 (ip), vehicle: saline with Tween-80
[5] = dose: 100.0 mg/kg/injection, schedule: Q04DX003 (ip), vehicle: saline with Tween-80
[6] = dose: 200.0 mg/kg/injection, schedule: Q04DX003 (ip), vehicle: saline with Tween-80
[7] = dose: 400.0 mg/kg/injection, schedule: Q04DX003 (ip), vehicle: saline with Tween-80
[8] = dose: 100.0 mg/kg/injection, schedule: Q01DX009 (ip), vehicle: Klucel (hydroxypropylcellulose) (HPC)
[9] = dose: 100.0 mg/kg/injection, schedule: Q04DX003 (ip), vehicle: Klucel (hydroxypropylcellulose) (HPC)
[10] = dose: 200.0 mg/kg/injection, schedule: Q01DX009 (ip), vehicle: Klucel (hydroxypropylcellulose) (HPC)
[11] = dose: 200.0 mg/kg/injection, schedule: Q04DX003 (ip), vehicle: Klucel (hydroxypropylcellulose) (HPC)
[12] = dose: 100.0 mg/kg/injection, schedule: Q04DX002 (ip), vehicle: Klucel (hydroxypropylcellulose) (HPC)
[13] = dose: 200.0 mg/kg/injection, schedule: Q04DX002 (ip), vehicle: Klucel (hydroxypropylcellulose) (HPC)
[14] = dose: 400.0 mg/kg/injection, schedule: Q01DX009 (ip), vehicle: Klucel (hydroxypropylcellulose) (HPC)
[15] = dose: 100.0 mg/kg/injection, schedule: Q01DX001 (ip), vehicle: saline
[16] = dose: 200.0 mg/kg/injection, schedule: Q01DX009 (ip), vehicle: saline with Tween-80

## O=C1OC(=O)c2c(O)cccc21
dose: 12.5 mg/kg/injection, schedule: Q01DX001 (ip), vehicle: saline
  T/C: 101 % of control
dose: 25.0 mg/kg/injection, schedule: Q01DX001 (ip), vehicle: saline
  T/C: 105 % of control
[1]
  T/C: 98 % of control
[2]
  T/C: 103 % of control
[3]
  T/C: 104 % of control
[4]
  T/C: 98 % of control
dose: 150.0 mg/kg/injection, schedule: Q01DX009 (ip), vehicle: saline with Tween-80
  T/C: 118 % of control

## CCOC(=O)COc1c(C(C)CC)cc([N+](=O)[O-])cc1[N+](=O)[O-] (stereo not drawn)
dose: 25.0 mg/kg/injection, schedule: Q01DX009 (ip), vehicle: gum acacia
  T/C: 93 % of control
dose: 25.0 mg/kg/injection, schedule: Q04DX002 (ip), vehicle: gum acacia
  T/C: 104 % of control
dose: 50.0 mg/kg/injection, schedule: Q01DX009 (ip), vehicle: gum acacia
  T/C: 93 % of control
dose: 50.0 mg/kg/injection, schedule: Q04DX002 (ip), vehicle: gum acacia
  T/C: 100 % of control
dose: 100.0 mg/kg/injection, schedule: Q01DX009 (ip), vehicle: gum acacia
  T/C: 90 % of control
dose: 100.0 mg/kg/injection, schedule: Q04DX002 (ip), vehicle: gum acacia
  T/C: 100 % of control and 92 % of control

## N#CCCP(CCC#N)CCP(CCC#N)CCC#N
[5]
  T/C: 96 % of control
[6]
  T/C: 89 % of control
[7]
  T/C: 86 % of control

## CCOC(=O)c1cc(C)n(-c2ccc(C(=O)O)cc2)c1C
dose: 50.0 mg/kg/injection, schedule: Q01DX009 (ip), vehicle: Klucel (hydroxypropylcellulose) (HPC)
  T/C: 97 % of control
[8]
  T/C: 95 % of control
[9]
  T/C: 98 % of control
[10]
  T/C: 95 % of control
[11]
  T/C: 91 % of control

## CN(C)Cc1ccccc1COC(=O)c1ccc(Cl)cc1
dose: 75.0 mg/kg/injection, schedule: Q04DX002 (ip), vehicle: saline
  T/C: 102 % of control
dose: 150.0 mg/kg/injection, schedule: Q04DX002 (ip), vehicle: saline
  T/C: 94 % of control
dose: 300.0 mg/kg/injection, schedule: Q04DX002 (ip), vehicle: saline
  T/C: 96 % of control

## Brc1cscc1Cc1cscc1Br
dose: 100.0 mg/kg/injection, schedule: Q01DX001 (ip), vehicle: saline with Tween-80
  T/C: 91 % of control
dose: 200.0 mg/kg/injection, schedule: Q01DX001 (ip), vehicle: saline with Tween-80
  T/C: 97 % of control
dose: 400.0 mg/kg/injection, schedule: Q01DX001 (ip), vehicle: saline with Tween-80
  T/C: 94 % of control

## CC(=O)Cc1cc(C)nc(NC#N)n1
[12]
  T/C: 102 % of control
[13]
  T/C: 98 % of control

## O=C(C(=O)c1ccc(Cl)cc1)c1ccc(Cl)cc1
dose: 1.56 mg/kg/injection, schedule: Q01DX009 (ip), vehicle: other
  T/C: 106 % of control
dose: 3.13 mg/kg/injection, schedule: Q01DX009 (ip), vehicle: other
  T/C: 95 % of control
dose: 6.25 mg/kg/injection, schedule: Q01DX009 (ip), vehicle: other
  T/C: 97 % of control and 92 % of control
dose: 25.0 mg/kg/injection, schedule: Q01DX009 (ip), vehicle: other
  T/C: 88 % of control
dose: 50.0 mg/kg/injection, schedule: Q01DX001 (ip), vehicle: carboxymethylcellulose (CMC)
  T/C: 94 % of control
dose: 100.0 mg/kg/injection, schedule: Q01DX001 (ip), vehicle: carboxymethylcellulose (CMC)
  T/C: 94 % of control
[5]
  T/C: 86 % of control
dose: 200.0 mg/kg/injection, schedule: Q01DX001 (ip), vehicle: carboxymethylcellulose (CMC)
  T/C: 89 % of control
[6]
  T/C: 88 % of control
dose: 400.0 mg/kg/injection, schedule: Q01DX001 (ip), vehicle: carboxymethylcellulose (CMC)
  T/C: 92 % of control
[7]
  T/C: 88 % of control

## COc1ccc(C(=O)N/N=C/c2ccccc2OC)cc1
[8]
  T/C: 92 % of control
[10]
  T/C: 100 % of control
[14]
  T/C: 96 % of control

## CCCCNC(=O)Nc1ccccc1
[9]
  T/C: 100 % of control
[11]
  T/C: 112 % of control
dose: 400.0 mg/kg/injection, schedule: Q04DX003 (ip), vehicle: Klucel (hydroxypropylcellulose) (HPC)
  T/C: 96 % of control

## Cc1ccc2nc(C)cc(NC(=O)c3ccccc3)c2c1
dose: 5.0 mg/kg/injection, schedule: Q01DX001 (ip), vehicle: saline
  T/C: 110 % of control
dose: 10.0 mg/kg/injection, schedule: Q01DX001 (ip), vehicle: saline
  T/C: 95 % of control
dose: 20.0 mg/kg/injection, schedule: Q01DX001 (ip), vehicle: saline
  T/C: 100 % of control
dose: 40.0 mg/kg/injection, schedule: Q01DX001 (ip), vehicle: saline
  T/C: 105 % of control
dose: 80.0 mg/kg/injection, schedule: Q01DX001 (ip), vehicle: saline
  T/C: 106 % of control

## CCC1CN1P1(=O)OCC(C)(C(=O)OC)CO1 (stereo not drawn)
[15]
  T/C: 101 % of control
dose: 200.0 mg/kg/injection, schedule: Q01DX001 (ip), vehicle: saline
  T/C: 108 % of control
dose: 400.0 mg/kg/injection, schedule: Q01DX001 (ip), vehicle: saline
  T/C: 101 % of control

## C1=CC2(CC=C1C1=CCC3(C=C1)SCCS3)SCCS2
dose: 50.0 mg/kg/injection, schedule: Q04DX002 (ip), vehicle: Klucel (hydroxypropylcellulose) (HPC)
  T/C: 108 % of control
[12]
  T/C: 101 % of control
[13]
  T/C: 104 % of control

## C=CC[Se]c1nc(N)nc2c1ncn2C1OC(CO)C(O)C1O (stereo not drawn)
dose: 12.5 mg/kg/injection, schedule: Q01DX005 (ip), vehicle: saline
  T/C: 104 % of control
dose: 25.0 mg/kg/injection, schedule: Q01DX005 (ip), vehicle: saline
  T/C: 100 % of control

## CN=C(NCCc1ccccc1)c1ccc(NC(=O)c2ccc(C(=O)Nc3ccc(C(=NC)NCCc4ccccc4)cc3)cc2)cc1
dose: 3.75 mg/kg/injection, schedule: Q01DX Z (ip), vehicle: saline
  T/C: 102 % of control
dose: 7.5 mg/kg/injection, schedule: Q01DX Z (ip), vehicle: saline
  T/C: 105 % of control

## Cc1cc(C)c(NC(=O)N(CCCl)N=O)cc1C
dose: 1.0 mg/kg/injection, schedule: Q01DX009 (ip), vehicle: carboxymethylcellulose (CMC)
  T/C: 104 % of control
dose: 2.0 mg/kg/injection, schedule: Q01DX009 (ip), vehicle: carboxymethylcellulose (CMC)
  T/C: 109 % of control
dose: 4.0 mg/kg/injection, schedule: Q01DX009 (ip), vehicle: carboxymethylcellulose (CMC)
  T/C: 107 % of control
dose: 50.0 mg/kg/injection, schedule: Q01DX001 (ip), vehicle: other
  T/C: 97 % of control
dose: 88.0 mg/kg/injection, schedule: Q01DX009 (ip), vehicle: carboxymethylcellulose (CMC)
  T/C: 155 % of control
dose: 100.0 mg/kg/injection, schedule: Q01DX001 (ip), vehicle: other
  T/C: 106 % of control
dose: 133.0 mg/kg/injection, schedule: Q01DX009 (ip), vehicle: carboxymethylcellulose (CMC)
  T/C: 180 % of control
dose: 200.0 mg/kg/injection, schedule: Q01DX001 (ip), vehicle: other
  T/C: 100 % of control
dose: 200.0 mg/kg/injection, schedule: Q01DX009 (ip), vehicle: carboxymethylcellulose (CMC)
  T/C: 166 % of control

## CCOC(=O)c1ccc(NP(=S)(OCC)OCC)cc1
[3]
  T/C: 94 % of control
[4]
  T/C: 94 % of control
[16]
  T/C: 96 % of control

## NC(N)=N/N=C(\C=C\c1ccccc1)C(=O)O
dose: 240.0 mg/kg/injection, schedule: Q01DX Z (ip), vehicle: methylcellulose (MC)
  T/C: 102 % of control
dose: 360.0 mg/kg/injection, schedule: Q01DX Z (ip), vehicle: methylcellulose (MC)
  T/C: 100 % of control
dose: 480.0 mg/kg/injection, schedule: Q01DX Z (ip), vehicle: methylcellulose (MC)
  T/C: 96 % of control

## O=c1[nH]cnc2ccccc12
[8]
  T/C: 107 % of control
[10]
  T/C: 93 % of control
[14]
  T/C: 103 % of control

## CC(NC(=O)NCCCl)c1ccsc1 (stereo not drawn)
dose: 2.5 mg/kg/injection, schedule: Q01DX009 (ip), vehicle: Klucel (hydroxypropylcellulose) (HPC)
  T/C: 111 % of control
dose: 5.0 mg/kg/injection, schedule: Q01DX009 (ip), vehicle: Klucel (hydroxypropylcellulose) (HPC)
  T/C: 98 % of control
dose: 10.0 mg/kg/injection, schedule: Q01DX009 (ip), vehicle: Klucel (hydroxypropylcellulose) (HPC)
  T/C: 94 % of control and 92 % of control

## CC(=O)Oc1cccc(OC(=O)Nc2ccccc2F)c1
[1]
  T/C: 103 % of control
[3]
  T/C: 108 % of control
[4]
  T/C: 103 % of control and 113 % of control
[16]
  T/C: 95 % of control and 103 % of control

## CN(C)C1=C(Cl)C(=O)c2ccccc2C1=O
[2]
  T/C: 102 % of control
[15]
  T/C: 100 % of control
